Reference: ChEMBL document CHEMBL1125127 (J Med Chem, 1990)
pIC50: −log10 of the molar value.

Columns and labels:
Canis familiaris [1] = assay: Percent change in FRP from control at active dose 0.3-3 mg/kg administered intravenously
Canis familiaris [2] = assay: Percent change in blood pressure (BP) from control at active dose 0.3-3 mg/kg administered intraperitoneally in anesthetized dogs; format: functional, Canis lupus familiaris
[3] = target: T1, Beta-2 adrenergic receptor (Canis lupus familiaris, UniProt P54833); assay: Beta2-receptor selectivity in canine lung tissue in anesthetized dogs; format: functional
Canis familiaris [4] = assay: Percent change in heart rate (HR) from control at active dose 1.0-10 mg/kg administered intraduodenally
Canis familiaris [5] = assay: Concentration at which maximum change in […] was observed from control value in anesthetized dogs; The maximum observed change APD95 from control value and concentration at 30 uM when this occurred; format: functional, Canis lupus familiaris
Canis familiaris [6] = assay: Percent change in blood pressure (BP) from control at active dose 1.0-10 mg/kg administered intraperitoneally in anesthetized dogs; format: functional, Canis lupus familiaris
Canis familiaris [7] = assay: Percent change in FRP from control at active dose 1.0-10 mg/kg administered intraduodenally in anesthetized dogs
Canis familiaris [8] = assay: Concentration that causes a 20% increase in APD95 (action potential duration at 95% repolarization) from control value in anesthetized dogs; format: functional, Canis lupus familiaris
Canis familiaris [9] = assay: Percent change in heart rate (HR) from control at active dose 0.3-3 mg/kg administered intravenously in conscious dogs
Canis familiaris [10] = assay: Percent change in blood pressure (BP) from control at active dose 10 mg/kg administered intraperitoneally in anesthetized dogs; format: functional, Canis lupus familiaris; details: route intraperitoneal
Canis familiaris [11] = assay: Maximum change in […] from control value in anesthetized dogs; 10 uM.; format: functional, Canis lupus familiaris
[12] = Ratio of number of active animals to number of treated at dose 1.0 mg/kg administered intraperitoneally in Epinephrine-induced model in anesthetized dogs; 4/8; format: functional; details: route intraperitoneal
Canis familiaris [13] = assay: Percent change in FRP from control at active dose 10 mg/kg administered intraperitoneally in anesthetized dogs; format: functional, Canis lupus familiaris; details: route intraperitoneal
[14] = target: Beta-1 adrenergic receptor (Canis familiaris)
Canis familiaris [15] = assay: Percent change in FRP from control at active dose 1.0-10 mg/kg administered intraperitoneally; format: functional, Canis lupus familiaris
Canis familiaris [16] = assay: Percent change in heart rate (HR) from control at active dose 1.0-10 mg/kg administered intraperitoneally in anesthetized dogs; format: functional, Canis lupus familiaris
[17] = Ratio of number of active animals to number of treated administered intraperitoneally in Epinephrine-induced model in anesthetized dogs; 4/8; details: route intraperitoneal
[18] = Ratio of number of active animals to number of treated at dose 10 mg/kg administered intraperitoneally in anesthetized dogs; No of animals tested=2; format: functional; details: route intraperitoneal
[19] = target: Beta adrenergic receptor (Canis familiaris)
[20] = Ratio of number of active animals to number of treated at dose 1.0-10 mg/kg administered intravenously in PES model in conscious dogs; 5/6
Canis familiaris [21] = assay: Percent change in heart rate (HR) from control at active dose 10 mg/kg administered intraduodenally; details: route intraduodenal
[22] = target: T1, Beta-2 adrenergic receptor
Description: Tested for Beta-2 adrenergic receptor selectivity in canine lung tissue in anesthetized dogs

Canis familiaris [23] = assay: Percent change in FRP from control at active dose 22-30 mg/kg administered intraduodenally in anesthetized dogs
[24] = Ratio of number of active animals to number of treated at dose 22-30 mg/kg administered intraperitoneally in anesthetized dogs; No of animals tested=2; format: functional
Canis familiaris [25] = assay: Percent change in blood pressure (BP) from control at active dose 22-30 mg/kg administered intraperitoneally in anesthetized dogs; format: functional, Canis lupus familiaris
Canis familiaris [26] = assay: Percent change in heart rate (HR) from control at active dose 22-30 mg/kg administered intraduodenally
Canis familiaris [27] = assay: Percent change in FRP from control at active dose 0.1-10 mg/kg administered intravenously
Canis familiaris [28] = assay: Concentration at which maximum change in […] was observed from control value in anesthetized dogs; The maximum observed change APD95 from control value and concentration at 100 uM when this occurred; format: functional, Canis lupus familiaris
Canis familiaris [29] = assay: Percent change in blood pressure (BP) from control at active dose 0.1-10 mg/kg administered intraperitoneally in anesthetized dogs; format: functional, Canis lupus familiaris
Canis familiaris [30] = assay: Percent change in heart rate (HR) from control at active dose 0.1-10 mg/kg administered intraperitoneally in anesthetized dogs; format: functional, Canis lupus familiaris
Canis familiaris [31] = assay: Percent change in heart rate (HR) from control at active dose 10 mg/kg administered intraduodenally; details: route intraduodenal; remark: listed apart in the source
Canis familiaris [32] = assay: Percent change in heart rate (HR) from control at active dose 30 mg/kg administered intraperitoneally; format: functional, Canis lupus familiaris; details: route intraperitoneal
[33] = Ratio of number of active animals to number of treated at dose 30 mg/kg administered intraperitoneally in anesthetized dogs; No of animals tested=2; format: functional; details: route intraperitoneal
Canis familiaris [34] = assay: (§1) Percent change in FRP from control at active dose 30 mg/kg administered intraperitoneally in anesthetized dogs; format: functional, Canis lupus familiaris; details: route intraperitoneal
Canis familiaris [35] = assay: Percent change in blood pressure (BP) from control at active dose 30 mg/kg administered intraperitoneally in anesthetized dogs; format: functional, Canis lupus familiaris; details: route intraperitoneal
[36] = as §1; format: functional; details: route intraperitoneal
Canis familiaris [37] = assay: Percent change in heart rate (HR) from control at active dose 30 mg/kg administered intraduodenally; details: route intraduodenal
Canis familiaris [38] = assay: Percent change in heart rate (HR) from control at active dose 0.1-3.0 mg/kg administered intravenously in conscious dogs
Canis familiaris [39] = assay: Percent change in FRP from control at active dose 0.1-3.0 mg/kg administered intravenously
Canis familiaris [40] = assay: Percent change in blood pressure (BP) from control at active dose 0.1-3.0 mg/kg administered intraperitoneally in anesthetized dogs; format: functional, Canis lupus familiaris
Canis familiaris [41] = assay: Percent change in blood pressure (BP) from control at active dose 10-30 mg/kg administered intraperitoneally in anesthetized dogs; format: functional, Canis lupus familiaris
[42] = Ratio of number of active animals to number of treated at dose 10-30 mg/kg administered intraperitoneally in anesthetized dogs; No of animals tested=2; format: functional
Canis familiaris [43] = assay: Percent change in heart rate (HR) from control at active dose 10-30 mg/kg administered intraduodenally
Canis familiaris [44] = assay: Percent change in FRP from control at active dose 10-30 mg/kg administered intraperitoneally in anesthetized dogs; format: functional, Canis lupus familiaris
Canis familiaris [45] = assay: Percent change in heart rate (HR) from control at active dose 1.0-10 mg/kg administered intravenously in conscious dogs
Canis familiaris [46] = assay: Percent change in blood pressure (BP) from control at active dose 1.0-10 mg/kg administered intravenously in anesthetized dogs
Canis familiaris [47] = assay: Percent change in FRP from control at active dose 1.0-10 mg/kg administered intravenously
[48] = Ratio of number of active animals to number of treated at dose 30 mg/kg administered intraperitoneally in anesthetized dogs; No of animals tested=4; details: route intraperitoneal
Canis familiaris [49] = assay: Concentration at which maximum change in […] was observed from control value in anesthetized dogs; The maximum observed change APD95 from control value and concentration at 1 uM when this occurred; format: functional, Canis lupus familiaris

T1 sequence (P54833 whole entry): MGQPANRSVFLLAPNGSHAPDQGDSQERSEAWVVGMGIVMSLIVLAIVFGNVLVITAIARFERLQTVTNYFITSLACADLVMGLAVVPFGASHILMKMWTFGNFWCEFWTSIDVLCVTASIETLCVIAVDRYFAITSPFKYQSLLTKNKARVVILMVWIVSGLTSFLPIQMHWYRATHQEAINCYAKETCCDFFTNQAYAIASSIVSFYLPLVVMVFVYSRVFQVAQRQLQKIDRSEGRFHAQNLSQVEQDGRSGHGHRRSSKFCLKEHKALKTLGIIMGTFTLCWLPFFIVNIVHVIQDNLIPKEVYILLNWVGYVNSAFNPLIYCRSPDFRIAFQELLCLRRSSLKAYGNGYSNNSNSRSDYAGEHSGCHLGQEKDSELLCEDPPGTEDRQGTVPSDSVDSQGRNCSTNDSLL

CS(=O)(=O)Nc1ccc(OC[C@@H](O)CNCCOc2ccc(-n3ccnc3)cc2)cc1 (stereo in doubt; 1) [ERSENTILIDE]
Change (Canis familiaris [1]): 13%
Change (Canis familiaris [2]): 3%
pIC50 [3]: 4.33
Change (Canis familiaris [4]): -16%
Max delta (Canis familiaris [5]): 92%
Change (Canis familiaris [6]): 3%
Change (Canis familiaris [7]): 27%
C20 APD95 (Canis familiaris [8]): 0.4 µM
Change (Canis familiaris [9]): 9%

Cc1ccccc1OCC(O)CN1CCN(c2ccc(NS(C)(=O)=O)cc2)CC1 (stereo not given)
Change (Canis familiaris [10]): 11%
Max delta (Canis familiaris [11]): 53%
No. effective [12]: 4
Change (Canis familiaris [13]): 13%
pIC50 [14]: 5.48
Change (Canis familiaris [15]): 8%
Change (Canis familiaris [16]): -3%
Ratio [17]: 0.5
Ratio [18]: 2
Change (Canis familiaris [6]): 13%
IC50 [19]: 2.3 µM
No. effective [20]: 5
Change (Canis familiaris [21]): -11%
C20 (Canis familiaris [8]): <4.5 µM
pIC50 [22]: 5.18

COc1ccc(OCC(O)CNCCNC(=O)c2ccc(-n3ccnc3)cc2)cc1 (stereo not given)
Change (Canis familiaris [23]): 24%
Max delta (Canis familiaris [5]): 47%
No. effective [24]: 2
Change (Canis familiaris [25]): -1%
IC50 [19]: 61.4 µM
Change (Canis familiaris [26]): -35%
C20 (Canis familiaris [8]): 6.6 µM

CS(=O)(=O)Nc1ccc(C(O)CNCCOc2ccc(-n3ccnc3)cc2)cc1 (stereo not given)
pIC50 [3]: 5.24
Change (Canis familiaris [10]): 17%
Change (Canis familiaris [27]): 15%
Max delta (Canis familiaris [28]): 155%
Change (Canis familiaris [29]): -4%
Change (Canis familiaris [13]): 24%
Change (Canis familiaris [30]): 1%
Change (Canis familiaris [31]): -18%
C20 APD95 (Canis familiaris [8]): <1 µM

CS(=O)(=O)Nc1ccc(N2CCN(CC(O)CON=C(C3CC3)C3CC3)CC2)cc1 (stereo not given)
Max delta (Canis familiaris [5]): 45%
Change (Canis familiaris [15]): 6%
Change (Canis familiaris [16]): 9%
Change (Canis familiaris [6]): 8%
Change (Canis familiaris [32]): -17%
Ratio [33]: 1
Change (Canis familiaris [34]): 15%
C20 (Canis familiaris [8]): 8 µM
Change (Canis familiaris [35]): 17%

O=C(NCCNCC(O)COc1cccc2ccccc12)c1ccc(-n2ccnc2)cc1 (stereo not given)
Max delta (Canis familiaris [28]): 57%
Change [36]: 13%
Change (Canis familiaris [15]): 6%
Change (Canis familiaris [16]): 24%
Change (Canis familiaris [6]): -5%
Ratio [33]: 2
IC50 [19]: 0.42 µM
C20 (Canis familiaris [8]): 1.8 µM
Change (Canis familiaris [35]): 16%
Change (Canis familiaris [37]): -15%

CS(=O)(=O)Nc1ccc(OC[C@@H](O)CNCCOc2ccc(-n3ccnc3)cc2)cc1 (stereo in doubt; (S)-1) [ERSENTILIDE]
pIC50 [3]: 4.30
Max delta (Canis familiaris [5]): 73%
Change (Canis familiaris [38]): -2%
Change (Canis familiaris [39]): 5%
Change (Canis familiaris [40]): 4%
C20 APD95 (Canis familiaris [8]): 1.8 µM

CS(=O)(=O)Nc1ccc(C(=O)N2CCN(CC(O)COc3cccc4ccccc34)CC2)cc1 (stereo not given)
Max delta (Canis familiaris [11]): 55%
Change (Canis familiaris [41]): 5%
No. effective [42]: 2
Change (Canis familiaris [43]): -25%
IC50 [19]: 30.9 µM
C20 (Canis familiaris [8]): 0.5 µM
Change (Canis familiaris [44]): 19%

Cc1cccc(OCC(O)CNCCOc2ccc(-n3ccnc3)cc2)c1 (stereo not given)
Change (Canis familiaris [45]): -12%
pIC50 [3]: 6.29
Max delta (Canis familiaris [11]): 35%
Change (Canis familiaris [46]): -4%
C20 APD95 (Canis familiaris [8]): 10 µM
Change (Canis familiaris [47]): 9%

CS(=O)(=O)Nc1ccc(N2CCN(CC(O)COc3ccccc3)CC2)cc1 (stereo not given)
Ratio [48]: 1
Max delta (Canis familiaris [49]): 52%
IC50 [19]: 15.8 µM
Change (Canis familiaris [34]): 14%
C20 (Canis familiaris [8]): 2.7 µM
Change (Canis familiaris [35]): -17%
Change (Canis familiaris [37]): -7%
